From ChEMBL document CHEMBL5620352, “Discovery of highly potent and selective VEGFR2 kinase inhibitors for the treatment of rheumatoid arthritis” (Eur J Med Chem, 2023) come the findings set out here.

What all share (assay type): ADME, organism-based
Series [1] can be described thus: AUC(0 to infinity) in Sprague-Dawley rat at 1 mg/kg, iv measured upto 24 hrs by LC-MS/MS analysis. To be noted: in vivo.
Series [2] can be described thus: AUC(0 to infinity) in Sprague-Dawley rat at 10 mg/kg, po measured upto 24 hrs by LC-MS/MS analysis. Particulars: in vivo.
Series [3] in a line: Cmax in Sprague-Dawley rat at 1 mg/kg, iv measured upto 24 hrs by LC-MS/MS analysis. To be noted: in vivo.
A short description of series [4]: Cmax in Sprague-Dawley rat at 10 mg/kg, po measured upto 24 hrs by LC-MS/MS analysis. Particulars: in vivo.
Series [5] is described as follows: Half life in Sprague-Dawley rat at 1 mg/kg, iv measured upto 24 hrs by LC-MS/MS analysis. Particulars: in vivo.
Series [6] is described as follows: Half life in Sprague-Dawley rat at 10 mg/kg, po measured upto 24 hrs by LC-MS/MS analysis. To be noted: in vivo.
Series [7] can be described thus: Apparent volume of distribution in Sprague-Dawley rat at 1 mg/kg, iv measured upto 24 hrs by LC-MS/MS analysis. Particulars: in vivo, read-out: Vz.
Series [8] can be described thus: Apparent volume of distribution in Sprague-Dawley rat at 10 mg/kg, po measured upto 24 hrs by LC-MS/MS analysis. To be noted: in vivo.
Series [9] can be described thus: Apparent clearance in Sprague-Dawley rat at 1 mg/kg, iv measured upto 24 hrs by LC-MS/MS analysis. To be noted: in vivo, read-out: CL(app) (converted).
Series [10] is described as follows: Apparent clearance in Sprague-Dawley rat at 10 mg/kg, po measured upto 24 hrs by LC-MS/MS analysis. To be noted: in vivo, read-out: CL(app) (converted).
The nature of series [11]: Oral bioavailability in Sprague-Dawley rat at 10 mg/kg measured upto 24 hrs by LC-MS/MS analysis. To be noted: in vivo.

Turning to `COc1cccc(C(=O)Nc2cccc(Sc3ccc4c(NC(C)=O)n[nH]c4c3)c2)c1`, the AUC(0-inf) was found to be 175 ng·h/mL in [1] and 274 ng·h/mL in series [2]. Moreover, the Cmax in series [3] worked out at 689 ng/mL; in series [4], 113 ng/mL. The half-life was 16.8 min in series [5] and 47.4 min in [6]. Besides, the Vd in [7] came to 2.16 L/kg. Also, the Vz in series [8] was 39.752 L/kg. The clearance in series [9] is 96 mL/min/kg. Further, the CL/F in series [10] was 657 mL/min/kg. Further, the bioavailability in series [11] stood at 15%.

By AUC(0-inf) is commonly meant the area under the concentration-time curve extrapolated to infinity. A high value points to more exposure. One may read the Cmax as the peak of the concentration-time curve. As a reminder, the half-life is the time in which the quantity being followed falls by half. Low values mean fast loss, high ones slow loss. A word on the bioavailability: it is dose-corrected exposure relative to a reference, in per cent.
